# From EP4667463A1, “DOMIDE MOLECULAR GLUE DERIVATIVE AND USE THEREOF” (CSPC Megalith Biopharmaceutical Co., Ltd., priority 2023, dated 2024)
# Legend:
# NCI-H929 = experiment: In vitro anti-tumor activity of molecular glue compounds, CellTiter-Lumi cell viability assay; format: cell-based; conditions: Homo sapiens; NCI-H929 cells, 96 h incubation; read-out: Cell inhibitory activity (IC50 values) NCI-H929
# Procedure: (§1) Different tumor cells were all commercially available and used for evaluating the anti-tumor inhibitory activity of the compounds of the present disclosure. Various tumor cells were cultured until the cell confluency reached 80%-90%, with cell viability above 90% as determined by trypan blue exclusion. Then, the cells were plated. Specifically, after cell density optimization, 100 µL of each of the cell suspensions of HL-60 and SK-BR-3 cells (cell density: 3000 cells/well), Romas cells (cell density: 6000 cells/well), NCI-H929 cells (cell density: 4000 cells/well), and NCI-H82 cells (cell density: 5000 cells/well) was plated in a BeyoGold™ ultra-low attachment black clear-bottom 96-well plate (Cat. No.: FULA965-24pcs), and the plate was incubated overnight. The next day, after the adherent cells were adhered to the wall and suspension cells requiring aggregation were aggregated, 50 µL of culture medium was aspirated from each well of the 96-well plate. Then, the compounds diluted with the corresponding culture media were added. Specifically, the compounds were serially diluted at a 5-fold gradient starting from the highest concentration of 1 µM, with a final DMSO concentration of 1%o, and the test compounds were then added to the cell culture plate. The plate was incubated in an incubator at 37 °C with 5% carbon dioxide for 96 h. Before measurement, the CellTiter-Lumi™ luminescent cell viability assay reagent was equilibrated to room temperature in the dark. Then, 50 µL of the CellTiter-Lumi™ (Cat. No.: C0065XL) cell viability assay reagent was added to each well of the 96-well plate. The plate was shaken in the dark on a shaker at 300 rpm for 10 min to ensure complete cell lysis. After the reaction was completed, the luminescence was measured on a multi-mode microplate reader. The cell inhibition rate was determined according to the luminescence. Then, a cell viability curve was generated by Graphpad Prism 8.0, and the IC50 values were calculated. The compounds of the present disclosure were tested for activity by the method described above. Table 1. Cell inhibitory activity (IC50 values)
# Romas = experiment: as above; format: cell-based; conditions: Romas cells, 96 h incubation; read-out: Cell inhibitory activity (IC50 values) Romas
# Procedure: as §1
# HL-60 = experiment: as above; format: cell-based; conditions: Homo sapiens; HL-60 cells, 96 h incubation; read-out: Cell inhibitory activity (IC50 values) HL-60
# Procedure: as §1
# SK-BR-3 = experiment: as above; format: cell-based; conditions: Homo sapiens; SK-BR-3 cells, 96 h incubation; read-out: Cell inhibitory activity (IC50 values) SK-BR-3
# Procedure: as §1
# NCI-H82 = experiment: as above; format: cell-based; conditions: Homo sapiens; NCI-H82 cells, 96 h incubation; read-out: Cell inhibitory activity (IC50 values) NCI-H82
# Procedure: as §1
# in vitro [1] = conditions: human, microsomes
# Procedure: (§2) The final concentration of the substrate in the incubation system was 1 µM, and the incubation time was 60 min. Sampling was performed at 0 min, 5 min, 15 min, 30 min, and 60 min. The reaction was stopped with glacial acetonitrile containing an internal standard (testosterone-d3 at a concentration of 10 ng/mL). Verapamil was used as a positive control. […] The natural logarithm of the remaining percentage was subjected to linear fitting with time to determine the elimination rate constant (k).
# [2] = Metabolic stability in liver microsomes; conditions: Rat liver microsomes, after 60 min of incubation
# Procedure: as §2
# in vitro [3] = conditions: rat, microsomes
# Procedure: as §2
# [4] = Metabolic stability in liver microsomes; conditions: Human liver microsomes, after 60 min of incubation
# Procedure: as §2
# [5] = Metabolic stability in liver microsomes; conditions: Monkey liver microsomes, after 60 min of incubation
# Procedure: as §2
# in vitro [6] = conditions: monkey, microsomes
# Procedure: as §2
# [7] = Metabolic stability in liver microsomes; conditions: Mouse liver microsomes, after 60 min of incubation
# Procedure: as §2
# [8] = Metabolic stability in liver microsomes; conditions: Dog liver microsomes, after 60 min of incubation
# Procedure: as §2
Compound,IC50 (NCI-H929) [nM],IC50 (Romas) [nM],IC50 (HL-60) [nM],IC50 (SK-BR-3) [nM],IC50 (NCI-H82) [nM],also measured
O=C1CCC(N2Cc3cc(CNC(=O)Nc4ccc(CCCOC5CCNC6CC65)c(Cl)c4)ccc3C2=O)C(=O)N1 (stereo not shown) [Compound B71],< 10,< 10,< 10,< 10,10 to 50,–
O=C1CCC(N2Cc3cc(CNC(=O)Nc4ccc(CCOCCNC5CC5)c(Cl)c4)ccc3C2=O)C(=O)N1 (stereo not shown) [Compound B47],10 to 50,> 100,10 to 50,> 100,> 100,–
O=C1CCC(N2Cc3cc(CNC(=O)Nc4ccc(CCCOC5CNC5)c(Cl)c4)ccc3C2=O)C(=O)N1 (stereo not shown) [Compound B63],< 10,10 to 50,< 10,< 10,10 to 50,"CLint scaled at 1 µM (in vitro [1]): 0.19 mL/min/kg; CLint scaled at 1 h, 1 µM (in vitro [1]): 0.189 mL/min/kg; half-life at 1 µM (in vitro [1]): 152 h; Parent drug remaining % [2]: 94.9%; CLint scaled at 1 µM (in vitro [3]): 1.39 mL/min/kg; CLint scaled at 1 h, 1 µM (in vitro [3]): 1.35 mL/min/kg; half-life at 1 µM (in vitro [3]): 29.8 h; Parent drug remaining % [4]: 98.8%; Parent drug remaining % [5]: 101%; CLint scaled at 1 µM (in vitro [6]): 0.257 mL/min/kg; CLint scaled at 1 h, 1 µM (in vitro [6]): 0.255 mL/min/kg; half-life at 1 µM (in vitro [6]): 132 h; Parent drug remaining % [7]: 102%; Parent drug remaining % [8]: 103%"
O=C1CCC(N2Cc3cc(CNC(=O)Nc4ccc(CCCOC5CC6(CNC6)C5)c(Cl)c4)ccc3C2=O)C(=O)N1 (stereo not shown) [Compound B68],< 10,< 10,< 10,< 10,10 to 50,–
O=C1CCC(N2Cc3cc(CNC(=O)Nc4ccc(CCCCOC5CCCNC5)c(Cl)c4)ccc3C2=O)C(=O)N1 (stereo not shown) [Compound B25],< 10,< 10,< 10,< 10,10 to 50,–
O=C1CCC(N2Cc3cc(CNC(=O)Nc4ccc(COCCCC5CCCNC5)c(Cl)c4)ccc3C2=O)C(=O)N1 (stereo not shown) [Compound B10],< 10,10 to 50,10 to 50,10 to 50,> 100,–
CNCC1(COCCc2ccc(NC(=O)NCc3ccc4c(c3)CN(C3CCC(=O)NC3=O)C4=O)cc2Cl)CCCCC1 (stereo not shown) [Compound B45],< 10,< 10,< 10,< 10,10 to 50,–
O=C1CCC(N2Cc3cc(CNC(=O)Nc4ccc(CCCOCCC5CCCNC5)c(Cl)c4)ccc3C2=O)C(=O)N1 (stereo not shown) [Compound B21],10 to 50,10 to 50,< 10,10 to 50,> 100,–
O=C1CCC(N2Cc3cc(CNC(=O)Nc4ccc(COCCC5CCCNC5)c(Cl)c4)ccc3C2=O)C(=O)N1 (stereo not shown) [Compound B9],< 10,10 to 50,< 10,10 to 50,10 to 50,–
O=C1CCC(N2Cc3cc(CNC(=O)Nc4ccc(CCOCCNC5CCOCC5)c(Cl)c4)ccc3C2=O)C(=O)N1 (stereo not shown) [Compound B48],10 to 50,50 to 100,< 10,50 to 100,> 100,–
CNCC1CCCC(OCCc2ccc(NC(=O)NCc3ccc4c(c3)CN(C3CCC(=O)NC3=O)C4=O)cc2Cl)C1 (stereo not shown) [Compound B54],< 10,10 to 50,< 10,10 to 50,10 to 50,–
O=C1CCC(N2Cc3cc(CNC(=O)Nc4ccc(CCCOC5CNCC6CCCCC65)c(Cl)c4)ccc3C2=O)C(=O)N1 (stereo not shown) [Compound B70],< 10,10 to 50,< 10,10 to 50,10 to 50,–
CNCCOCCC1(c2ccc(NC(=O)NCc3ccc4c(c3)CN(C3CCC(=O)NC3=O)C4=O)cc2Cl)CCCCC1 (stereo not shown) [Compound B51],10 to 50,50 to 100,10 to 50,50 to 100,> 100,–
O=C1CCC(N2Cc3cc(CNC(=O)Nc4ccc(CCOCC5CCCNC5)c(Cl)c4)ccc3C2=O)C(=O)N1 (stereo not shown) [Compound B14],< 10,< 10,< 10,10 to 50,10 to 50,–
O=C1CCC(N2Cc3cc(CNC(=O)Nc4ccc(CCOCCC5CCCNC5)c(Cl)c4)ccc3C2=O)C(=O)N1 (stereo not shown) [Compound B15],10 to 50,10 to 50,< 10,10 to 50,> 100,–
O=C1CCC(N2Cc3cc(CNC(=O)Nc4ccc(CCCOC5CCNCC56CC6)c(Cl)c4)ccc3C2=O)C(=O)N1 (stereo not shown) [Compound B72],< 10,10 to 50,< 10,10 to 50,10 to 50,–
O=C1CCC(N2Cc3cc(CNC(=O)Nc4ccc(CCCOCC5CCCNC5)c(Cl)c4)ccc3C2=O)C(=O)N1 (stereo not shown) [Compound B20],< 10,< 10,< 10,< 10,10 to 50,–
O=C1CCC(N2Cc3cc(CNC(=O)Nc4ccc(CCOC5CCCNC5)c(Cl)c4)ccc3C2=O)C(=O)N1 (stereo not shown) [Compound B13],< 10,10 to 50,< 10,10 to 50,10 to 50,–
O=C1CCC(N2Cc3cc(CNC(=O)Nc4ccc(COC5CCCNC5)c(Cl)c4)ccc3C2=O)C(=O)N1 (stereo not shown) [Compound B7],10 to 50,10 to 50,10 to 50,10 to 50,10 to 50,–
O=C1CCC(N2Cc3cc(CNC(=O)Nc4ccc(CCCOCC5CCCN5)c(Cl)c4)ccc3C2=O)C(=O)N1 (stereo not shown) [Compound B65],< 10,< 10,< 10,< 10,10 to 50,–
O=C1CCC(N2Cc3cc(CNC(=O)Nc4ccc(COCC5CCCNC5)c(Cl)c4)ccc3C2=O)C(=O)N1 (stereo not shown) [Compound B8],10 to 50,10 to 50,10 to 50,10 to 50,10 to 50,–
CC1(OCCCc2ccc(NC(=O)NCc3ccc4c(c3)CN(C3CCC(=O)NC3=O)C4=O)cc2Cl)CCNCC1 (stereo not shown) [Compound B66],< 10,< 10,< 10,< 10,10 to 50,–
CC1(OCCCc2ccc(NC(=O)NCc3ccc4c(c3)CN(C3CCC(=O)NC3=O)C4=O)cc2Cl)CCCNC1 (stereo not shown) [Compound B67],< 10,< 10,< 10,< 10,10 to 50,–
O=C1CCC(N2Cc3cc(CNC(=O)Nc4ccc(CCOCC5CNCCO5)c(Cl)c4)ccc3C2=O)C(=O)N1 (stereo not shown) [Compound B53],< 10,< 10,< 10,< 10,10 to 50,–
CNC1COCC(OCCc2ccc(NC(=O)NCc3ccc4c(c3)CN(C3CCC(=O)NC3=O)C4=O)cc2Cl)C1 (stereo not shown) [Compound B44],< 10,< 10,< 10,< 10,10 to 50,–
O=C1CCC(N2Cc3cc(CNC(=O)Nc4ccc(CCOCCNC5CCCCC5)c(Cl)c4)ccc3C2=O)C(=O)N1 (stereo not shown) [Compound B46],10 to 50,50 to 100,< 10,50 to 100,> 100,–
O=C1CCC(N2Cc3cc(CNC(=O)Nc4ccc(CCCOC5CCNC5)c(Cl)c4)ccc3C2=O)C(=O)N1 (stereo not shown) [Compound B64],< 10,< 10,< 10,< 10,10 to 50,–
CNC1CCCC(OCCc2ccc(NC(=O)NCc3ccc4c(c3)CN(C3CCC(=O)NC3=O)C4=O)cc2Cl)C1 (stereo not shown) [Compound B43],< 10,< 10,< 10,< 10,10 to 50,–
